According to ChEMBL document CHEMBL3885881, “DrugMatrix”:

Species on record: Rattus norvegicus
Assay: DrugMatrix - Regimen: Daily Repeat
Type: toxicity, organism-based, Sprague-Dawley
Parameters: regimen Daily Repeat, gender Male, age 6-8 weeks
Conditions: in vivo, po, route oral GAVAGE, […]; for ABSOLUTE BASOPHIL / ABSOLUTE EOSINOPHIL / ABSOLUTE LYMPHOCYTE / ABSOLUTE MONOCYTE / ABSOLUTE SEGMENTED NEUTROPHIL / BASOPHIL / EOSINOPHIL / ERYTHROCYTE COUNT / HEMATOCRIT / HEMOGLOBIN / LEUKOCYTE COUNT / LYMPHOCYTE / MEAN CORPUSCULAR HEMOGLOBIN / MEAN CORPUSCULAR HEMOGLOBIN CONCENTRATION / MEAN CORPUSCULAR VOLUME / MONOCYTE / NEUTROPHIL / NUCLEATED RED BLOOD CELLS / PLATELET COUNT: tissue Blood; for ALANINE AMINOTRANSFERASE / ALBUMIN / ALKALINE PHOSPHATASE / ASPARTATE AMINOTRANSFERASE / BLOOD UREA NITROGEN / CARBON DIOXIDE / CHLORIDE / CHOLESTEROL / CREATINE PHOSPHOKINASE / CREATININE / GLUCOSE / LACTATE DEHYDROGENASE / LIPASE / PHOSPHORUS / POTASSIUM / SODIUM / TOTAL BILIRUBIN / TOTAL PROTEIN / URIC ACID: tissue Plasma
[1] = 0 mg/kg, 72 h, dose level Control, time 3 day
[2] = 0 mg/kg, 120 h, dose level Control, time 5 day
[3] = 11 mg/kg, 72 h, dose level High, time 3 day

C[C@H]1O[C@@H](O[C@H]2[C@@H](O)C[C@H](O[C@H]3[C@@H](O)C[C@H](O[C@H]4CC[C@@]5(C)[C@H](CC[C@@H]6[C@@H]5C[C@@H](O)[C@]5(C)[C@@H](C7=CC(=O)OC7)CC[C@]65O)C4)O[C@@H]3C)O[C@@H]2C)C[C@H](O)[C@@H]1O [DIGOXIN]
ABSOLUTE BASOPHIL [1]: 0 CELLS/uL
ABSOLUTE EOSINOPHIL [1]: 0 CELLS/uL
ABSOLUTE LYMPHOCYTE [1]: 8493 CELLS/uL
ABSOLUTE MONOCYTE [1]: 127 CELLS/uL
ABSOLUTE SEGMENTED NEUTROPHIL [1]: 896.67 CELLS/uL
BASOPHIL [1]: 0%
EOSINOPHIL [1]: 0%
ERYTHROCYTE COUNT [1]: 5.53 x10E6/uL
HEMATOCRIT [1]: 34.07%
HEMOGLOBIN [1]: 13.28 G/DL
LEUKOCYTE COUNT [1]: 9.52 x10E3/uL
LYMPHOCYTE [1]: 89.17%
MEAN CORPUSCULAR HEMOGLOBIN [1]: 24.07 pg
MEAN CORPUSCULAR HEMOGLOBIN CONCENTRATION [1]: 39.03 G/DL
MEAN CORPUSCULAR VOLUME [1]: 61.62 fL
MONOCYTE [1]: 1.33%
NEUTROPHIL [1]: 9.5%
NUCLEATED RED BLOOD CELLS [1]: 0.17 /100WBC
PLATELET COUNT [1]: 1054.17 x10E3/uL
ALANINE AMINOTRANSFERASE [1]: 77.67 u/L
ALBUMIN [1]: 4.08 G/DL
ALKALINE PHOSPHATASE [1]: 404.5 u/L
ASPARTATE AMINOTRANSFERASE [1]: 83.17 u/L
BLOOD UREA NITROGEN [1]: 14.33 mg/dL
CARBON DIOXIDE [1]: 33.17 mmol/L
CHLORIDE [1]: 101 MEQ/L
CHOLESTEROL [1]: 76.33 mg/dL
CREATINE PHOSPHOKINASE [1]: 184.5 u/L
CREATININE [1]: 0.13 mg/dL
GLUCOSE [1]: 163.67 mg/dL
LACTATE DEHYDROGENASE [1]: 130.33 u/L
LIPASE [1]: 11 u/L
PHOSPHORUS [1]: 9.27 mg/dL
POTASSIUM [1]: 6.26 MEQ/L
SODIUM [1]: 143.57 MEQ/L
TOTAL BILIRUBIN [1]: 0.18 mg/dL
TOTAL PROTEIN [1]: 5.82 G/DL
URIC ACID [1]: 1.38 mg/dL
ABSOLUTE BASOPHIL [2]: 0 CELLS/uL
ABSOLUTE EOSINOPHIL [2]: 0 CELLS/uL
ABSOLUTE LYMPHOCYTE [2]: 8546.17 CELLS/uL
ABSOLUTE MONOCYTE [2]: 49.5 CELLS/uL
ABSOLUTE SEGMENTED NEUTROPHIL [2]: 554.33 CELLS/uL
BASOPHIL [2]: 0%
EOSINOPHIL [2]: 0%
ERYTHROCYTE COUNT [2]: 5.36 x10E6/uL
HEMATOCRIT [2]: 33.38%
HEMOGLOBIN [2]: 13.2 G/DL
LEUKOCYTE COUNT [2]: 9.15 x10E3/uL
LYMPHOCYTE [2]: 93.17%
MEAN CORPUSCULAR HEMOGLOBIN [2]: 24.68 pg
MEAN CORPUSCULAR HEMOGLOBIN CONCENTRATION [2]: 39.58 G/DL
MEAN CORPUSCULAR VOLUME [2]: 62.38 fL
MONOCYTE [2]: 0.5%
NEUTROPHIL [2]: 6.33%
NUCLEATED RED BLOOD CELLS [2]: 0.17 /100WBC
PLATELET COUNT [2]: 1099.33 x10E3/uL
ALANINE AMINOTRANSFERASE [2]: 62.33 u/L
ALBUMIN [2]: 4.1 G/DL
ALKALINE PHOSPHATASE [2]: 419 u/L
ASPARTATE AMINOTRANSFERASE [2]: 83.17 u/L
BLOOD UREA NITROGEN [2]: 15.5 mg/dL
CARBON DIOXIDE [2]: 33.17 mmol/L
CHLORIDE [2]: 98 MEQ/L
CHOLESTEROL [2]: 58.33 mg/dL
CREATINE PHOSPHOKINASE [2]: 393.17 u/L
CREATININE [2]: 0.18 mg/dL
GLUCOSE [2]: 163 mg/dL
LACTATE DEHYDROGENASE [2]: 111.5 u/L
LIPASE [2]: 9.5 u/L
PHOSPHORUS [2]: 10.02 mg/dL
POTASSIUM [2]: 5.73 MEQ/L
SODIUM [2]: 143.65 MEQ/L
TOTAL BILIRUBIN [2]: 0.2 mg/dL
TOTAL PROTEIN [2]: 5.85 G/DL
URIC ACID [2]: 0.78 mg/dL
ABSOLUTE BASOPHIL [3]: 0 CELLS/uL
ABSOLUTE EOSINOPHIL [3]: 0 CELLS/uL
ABSOLUTE LYMPHOCYTE [3]: 7683.67 CELLS/uL
ABSOLUTE MONOCYTE [3]: 95.67 CELLS/uL
ABSOLUTE SEGMENTED NEUTROPHIL [3]: 254 CELLS/uL
BASOPHIL [3]: 0%
EOSINOPHIL [3]: 0%
ERYTHROCYTE COUNT [3]: 6.46 x10E6/uL
HEMATOCRIT [3]: 39.07%
HEMOGLOBIN [3]: 14.83 G/DL
LEUKOCYTE COUNT [3]: 8.03 x10E3/uL
LYMPHOCYTE [3]: 95.67%
MEAN CORPUSCULAR HEMOGLOBIN [3]: 22.9 pg
MEAN CORPUSCULAR HEMOGLOBIN CONCENTRATION [3]: 37.9 G/DL
MEAN CORPUSCULAR VOLUME [3]: 60.4 fL
MONOCYTE [3]: 1%
NEUTROPHIL [3]: 3.33%
NUCLEATED RED BLOOD CELLS [3]: 0 /100WBC
PLATELET COUNT [3]: 1036 x10E3/uL
ALANINE AMINOTRANSFERASE [3]: 99.67 u/L
ALBUMIN [3]: 4.37 G/DL
ALKALINE PHOSPHATASE [3]: 416 u/L
ASPARTATE AMINOTRANSFERASE [3]: 100.33 u/L
BLOOD UREA NITROGEN [3]: 11.67 mg/dL
CARBON DIOXIDE [3]: 33 mmol/L
CHLORIDE [3]: 100 MEQ/L
CHOLESTEROL [3]: 90.67 mg/dL
CREATINE PHOSPHOKINASE [3]: 245.33 u/L
CREATININE [3]: 0.1 mg/dL
GLUCOSE [3]: 142.33 mg/dL
LACTATE DEHYDROGENASE [3]: 125.67 u/L
LIPASE [3]: 10.33 u/L
PHOSPHORUS [3]: 8.27 mg/dL
POTASSIUM [3]: 6.27 MEQ/L
SODIUM [3]: 143.3 MEQ/L
TOTAL BILIRUBIN [3]: 0.2 mg/dL
TOTAL PROTEIN [3]: 6.3 G/DL
URIC ACID [3]: 1 mg/dL
